Source: article PMC10534827 (Pharmaceuticals, 2023)

How the values were obtained:
[1] = molecular target: T1, Acetylcholinesterase from Electrophorus electricus (Electrophorus electricus, UniProt O42275); experiment: biochemical; format: biochemical; conditions: for inhibition at 1000 µM: 1 mM solution of the tested compound, read-out: Activity [%] (inhibition percentage of AChE); for IC50: mean ± SD of three experiments, read-out: AChE IC50; for SI AChE: IC50(BChE)/IC50(AChE)
T1 construct: purchased Sigma-Aldrich, Hamburg, Germany
T1 sequence (O42275 24-633): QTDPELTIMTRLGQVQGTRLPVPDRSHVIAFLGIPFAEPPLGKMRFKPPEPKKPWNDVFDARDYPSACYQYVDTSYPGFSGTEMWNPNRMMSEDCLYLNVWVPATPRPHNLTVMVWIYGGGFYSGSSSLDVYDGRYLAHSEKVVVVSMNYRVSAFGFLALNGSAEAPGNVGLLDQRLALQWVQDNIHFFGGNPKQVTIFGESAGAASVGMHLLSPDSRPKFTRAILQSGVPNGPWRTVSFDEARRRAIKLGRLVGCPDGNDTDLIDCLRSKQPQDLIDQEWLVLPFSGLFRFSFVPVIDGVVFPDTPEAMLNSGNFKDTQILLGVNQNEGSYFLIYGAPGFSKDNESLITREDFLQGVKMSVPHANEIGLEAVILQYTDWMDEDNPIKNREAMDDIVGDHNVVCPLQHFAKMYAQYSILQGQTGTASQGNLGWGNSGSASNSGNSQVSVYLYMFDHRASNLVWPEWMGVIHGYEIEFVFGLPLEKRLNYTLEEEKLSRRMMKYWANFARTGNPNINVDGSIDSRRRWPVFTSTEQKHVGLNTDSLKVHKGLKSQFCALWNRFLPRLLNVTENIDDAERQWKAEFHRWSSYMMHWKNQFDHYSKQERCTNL
Description: (§1) AChE and BChE inhibitory activity was measured using the microplate assay described by Ellman et al. [68] with the modifications added by López et al. [36]. The compounds were tested at concentrations between 10^−3 and 10^−8 M. First, all compounds were dissolved in 1% DMSO in a concentration of 1 mg/mL.
(§2) Incubation of the plates was performed at room temperature for 30 min. Then, 100 μL of substrate solution were added to start the enzymatic reaction. […] Enzyme activity was calculated as an inhibition percentage compared to an assay including buffer instead of an inhibitor. […] All data were analyzed with the software package Prism 3 (Graph Pad Inc., San Diego, CA, USA).

[2] = molecular target: T2, butyrylcholinesterase from equine serum (Equus caballus, UniProt P81908); experiment: biochemical; conditions: for inhibition at 1000 µM: 1 mM solution of the tested compound, read-out: Activity [%] (inhibition percentage of BChE); for IC50: mean ± SD of three experiments, read-out: BChE IC50
T2 construct: butyrylcholinesterase from equine serum; purchased Sigma-Aldrich, Hamburg, Germany; host or cells: equine serum
T2 sequence (P81908 whole entry): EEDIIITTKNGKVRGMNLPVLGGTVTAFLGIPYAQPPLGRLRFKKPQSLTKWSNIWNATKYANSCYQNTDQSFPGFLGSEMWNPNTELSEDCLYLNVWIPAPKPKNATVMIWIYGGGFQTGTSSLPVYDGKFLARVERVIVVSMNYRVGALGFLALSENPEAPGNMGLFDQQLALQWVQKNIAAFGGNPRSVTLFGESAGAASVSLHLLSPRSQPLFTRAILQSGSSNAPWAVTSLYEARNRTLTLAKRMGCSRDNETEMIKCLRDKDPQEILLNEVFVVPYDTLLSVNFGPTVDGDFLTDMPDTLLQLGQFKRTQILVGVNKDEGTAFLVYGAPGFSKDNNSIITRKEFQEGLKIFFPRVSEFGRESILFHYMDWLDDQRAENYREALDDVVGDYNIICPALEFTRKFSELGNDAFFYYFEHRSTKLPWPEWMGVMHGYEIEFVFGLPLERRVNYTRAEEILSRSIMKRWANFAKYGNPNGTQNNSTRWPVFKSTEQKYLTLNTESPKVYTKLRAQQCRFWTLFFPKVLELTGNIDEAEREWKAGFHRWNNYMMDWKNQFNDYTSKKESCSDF
Description: as §1, §2

Neuro-2a cells = experiment: MTT cytotoxicity, Neuro-2a; format: cell-based, murine; conditions: Mus musculus, N2a; MTT, 72 h exposure; read-out: Neuro-2a IC50
SH-SY5Y cells = experiment: MTT cytotoxicity, SH-SY5Y; format: cell-based, human; conditions: Homo sapiens, SH-SY5Y; MTT, 72 h exposure; read-out: SH-SY5Y IC50
CCL-1 cells = experiment: MTT cytotoxicity, CCL-1 normal fibroblasts; format: cell-based, murine; conditions: Mus musculus, Fibroblast; MTT, 72 h exposure; read-out: CCL-1 IC50
[3] = Ferric reducing antioxidant power (FRAP); conditions: 150 μL of 5 mM compound, 30 min, 593 nm, Trolox equivalent
[4] = Lipid peroxidation in linoleic acid system, FTC method; conditions: 10 mM compound, 500 nm
Description: The antioxidant activity of studied compounds against lipid peroxidation was measured through ammonium thiocyanate assay as described by Takao et al. [66] with some modifications. […] A 10 μL aliquot of the reaction solution was then added to 200 μL of 70% (v/v) ethanol and 10 μL of 30% (w/v) ammonium thiocyanate. […] Aliquots were assayed every 24 h until the day after the absorbance of the control solution (without compound) reached maximum value. BHT (10 mM) was used as positive control.

PAMPA-BBB permeability = format: in vitro ADME; conditions: for PAMPA BBB −logPe: experimentally measured BBB permeability
Description: At the same time, they needed to fulfill the requirement for good BBB permeation in order to achieve sufficient brain exposure. Although transport across the BBB is quite a complex phenomenon, passive diffusion is still the primary route for exogenous substances to access that target. So, the selected compounds were subjected to an in vitro PAMPA-BBB assay, relying on the capacity of the method in distinguishing the candidates with good BBB passive permeabilities. […].
The blood–brain barrier permeabilities were measured by PAMPA Permeability Analyzer (pIONInc, Billerica, MA, USA). The tested compounds and reference standards were prepared as 10 mM stock solutions in DMSO and further diluted in Prisma HT buffer pH 7.4. The experiment followed the BBB Protocol: 200 μL sample’s aliquots in the donor compartment, Brain Sink Buffer aliquots (200 μL) in the acceptor wells, BBB-1 lipid for coating the permeation membranes, “sandwich” assembly with the acceptor plate on top of the donor one, and incubation at temperature 25 °C for 4 h under humidity control without stirring. For permeability assessment, UV spectra of the blank, reference, donor, and acceptor plates were collected at wavelength 250–500 nm. […]. Samples were analyzed in triplicate and average values were reported. […]. Theophylline, corticosterone, and propranolol HCl were used as reference standards to control the quality and consistency of the BBB permeability experiment.

[5] = DPPH radical scavenging activity; conditions: 300 μL of 5 mM compound in MeOH, 30 min, 517 nm
Description: The DPPH (2,2-diphenyl-1-picryl-hydrazyl-hydrate) free radical scavenging activity method is based on the neutralization of the DPPH radical by an antioxidant.
Free radical scavenging activity was measured using DPPH method [69, 70] with slight modification. Here, 300 μL of 5 mM solutions of tested compounds in MeOH were added to 2 mL methanolic solution of DPPH (2 mg/mL). […] Results were evaluated as percentage scavenging of radical:DPPH radical scavenging activity (%) = ((Abscontr. − Abssample)/Abscontr.) ×100, where Abscontr. is the absorbance of DPPH radical with 300 μL MeOH, Abssample is the absorbance of DPPH radical solution mixed with sample. BHT was used as positive control.

[6] = ABTS radical scavenging assay; conditions: 734 nm after 5 min
Description: These compounds were also tested for their antioxidant activities by using the ABTS [2,2′-azinobis (3-ethylbenzothiazoline-6-sulfonic acid)] cation radical decolorization method (Table 4). The BHT [41] was used for comparison. The ABTS cation radical is produced by oxidation of the ABTS molecule with strong oxidizing agents, such as potassium persulfate in water.
For ABTS assay, the procedure followed the method of Arnao et al. [71] with some modifications. […] The working solution was then prepared by mixing the two stock solutions in equal quantities and allowing them to react for 14 h at room temperature in the dark. […] A fresh ABTS solution was prepared for each assay. […] The ABTS scavenging capacity of the compound was calculated as follows:ABTS radical scavenging activity (%) = ((Abscontr. − Abssample)/Abscontr.) ×100, where Abscontr. is the absorbance of DPPH radical with 300 μL MeOH, Abssample is the absorbance of DPPH radical solution mixed with the sample. […] BHT was used as positive control.

O=C(Cc1c[nH]c2ccccc12)N/N=C/C1CCN(Cc2ccccc2)CC1 [3a, N’-[(E)-(1-benzylpiperidin-4-yl)methylidene]-2-(1H-indol-3-yl)acetohydrazide]
inhibition at 1000 µM [1]: 78.9% | IC50 [1]: 76.5 ± 3.04 µM | inhibition at 1000 µM [2]: 80.4% | SI BChE ([2]; IC50(AChE)/IC50(BChE)): 1.35 | IC50 [2]: 56.5 ± 0.2 µM | IC50 (Neuro-2a cells): > 300 µM | IC50 (SH-SY5Y cells): 129 ± 7.5 µM | IC50 (CCL-1 cells): 138 ± 9.8 µM | FRAP [3]: 15.42 ± 0.74 μMTE | Absorbance Day 1 [4]: 0.87 ± 0.03 | Absorbance Day 2 [4]: 0.87 ± 0.08 | Absorbance Day 3 [4]: 0.72 ± 0.07 | Absorbance Day 4 [4]: 0.72 ± 0.05 | Absorbance Day 5 [4]: 0.71 ± 0.08 | PAMPA BBB −logPe (PAMPA-BBB permeability): 4.420 | DPPH Activity [5]: 5.74 ± 0.39%

O=C(N/N=C/C1CCN(Cc2ccccc2)CC1)c1ccc(O)cc1O [3b, N’-[(E)-(1-benzylpiperidin-4-yl)methylidene]-2,4-dihydroxybenzohydrazide]
inhibition at 1000 µM [1]: 89.3% | SI AChE [1]: 13.22 | IC50 [1]: 19.8 ± 0.95 µM | inhibition at 1000 µM [2]: 75.9% | IC50 [2]: 262 ± 8.75 µM | IC50 (Neuro-2a cells): > 300 µM | IC50 (SH-SY5Y cells): 138 µM | IC50 (CCL-1 cells): 154 ± 7.3 µM | ABTS Activity [6]: 93.22 ± 0.30% | IC50 [6]: 2570 ± 100 µM | FRAP [3]: 16.63 ± 0.98 μMTE | Absorbance Day 1 [4]: 0.92 ± 0.06 | Absorbance Day 2 [4]: 0.93 ± 0.09 | Absorbance Day 3 [4]: 0.95 ± 0.05 | Absorbance Day 4 [4]: 0.96 ± 0.01 | Absorbance Day 5 [4]: 1.00 ± 0.02 | BBB permeability class (PAMPA-BBB permeability; PAMPA-BBB): moderately permeable | PAMPA BBB −logPe (PAMPA-BBB permeability): 5.873 | DPPH Activity [5]: 13.30 ± 0.83%

O=C(N/N=C/C1CCN(Cc2ccccc2)CC1)c1c[nH]c2ccccc12 [3c, N’-[(E)-(1-benzylpiperidin-4-yl)methylidene]-1H-indole-3-carbohydrazide]
inhibition at 1000 µM [1]: 72% | SI AChE [1]: 2.45 | IC50 [1]: 10.8 ± 1.66 µM | inhibition at 1000 µM [2]: 77% | IC50 [2]: 26.3 ± 3.11 µM | IC50 (Neuro-2a cells): > 300 µM | IC50 (SH-SY5Y cells): 97.3 µM | IC50 (CCL-1 cells): 168 ± 10.4 µM | ABTS Activity [6]: 36.69 ± 0.70% | IC50 [6]: > 5000 µM | FRAP [3]: 38.97 ± 3.58 μMTE | Absorbance Day 1 [4]: 0.89 ± 0.07 | Absorbance Day 2 [4]: 0.87 ± 0.02 | Absorbance Day 3 [4]: 0.85 ± 0.05 | Absorbance Day 4 [4]: 0.85 ± 0.07 | Absorbance Day 5 [4]: 0.74 ± 0.05 | PAMPA BBB −logPe (PAMPA-BBB permeability): 4.466 | DPPH Activity [5]: 30.05 ± 0.55%

COc1ccc(C(=O)N/N=C/C2CCN(Cc3ccccc3)CC2)cc1 [3d, N’-[(E)-(1-benzylpiperidin-4-yl)methylidene]-4-methoxybenzohydrazide]
inhibition at 1000 µM [1]: 81.2% | SI AChE [1]: 20.19 | IC50 [1]: 9.77 ± 0.76 µM | inhibition at 1000 µM [2]: 72.9% | IC50 [2]: 197 ± 18.7 µM | IC50 (Neuro-2a cells): > 300 µM | IC50 (SH-SY5Y cells): 122 ± 9.2 µM | IC50 (CCL-1 cells): 220 µM | ABTS Activity [6]: ≥100% | IC50 [6]: 1050 ± 40 µM | FRAP [3]: 15.87 ± 1.41 μMTE | Absorbance Day 1 [4]: 0.85 ± 0.02 | Absorbance Day 2 [4]: 0.86 ± 0.02 | Absorbance Day 3 [4]: 0.88 ± 0.05 | Absorbance Day 4 [4]: 0.85 ± 0.07 | Absorbance Day 5 [4]: 0.84 ± 0.09 | DPPH Activity [5]: 40.80 ± 3.10%

COc1cc(/C=N/NC(=O)Cc2c[nH]c3ccccc23)ccc1O [3q, N’-[(E)-(4-hydroxy-3-methoxyphenyl)methylidene]-2-(1H-indol-3-yl)acetohydrazide]
inhibition at 1000 µM [1]: 12.8% | IC50 [1]: > 1000 µM | inhibition at 1000 µM [2]: 13.9% | IC50 [2]: > 1000 µM | IC50 (Neuro-2a cells): 254 ± 13.7 µM | IC50 (SH-SY5Y cells): 141 ± 8.8 µM | IC50 (CCL-1 cells): 170 ± 14 µM | ABTS Activity [6]: ≥100% | IC50 [6]: 2380 ± 70 µM | FRAP [3]: 15.60 ± 0.90 μMTE | Absorbance Day 1 [4]: 0.76 ± 0.03 | Absorbance Day 2 [4]: 0.77 ± 0.08 | Absorbance Day 3 [4]: 0.79 ± 0.03 | Absorbance Day 4 [4]: 0.84 ± 0.05 | Absorbance Day 5 [4]: 0.91 ± 0.09 | DPPH Activity [5]: 20.40 ± 0.83%

Cc1ccc(S(=O)(=O)N/N=C/c2cn(Cc3ccccc3)c3ccccc23)cc1 [5g, N’-[(E)-(1-benzyl-1H-indol-3-yl)methylidene]-4-methylbenzenesulfonohydrazide]
inhibition at 1000 µM [1]: 2.18% | IC50 [1]: > 1000 µM | inhibition at 1000 µM [2]: 40.6% | IC50 [2]: > 1000 µM | IC50 (Neuro-2a cells): 135 ± 10.9 µM | IC50 (SH-SY5Y cells): 92.1 ± 9.3 µM | IC50 (CCL-1 cells): 50.7 ± 3.6 µM | ABTS Activity [6]: ≥100% | IC50 [6]: 2080 ± 100 µM | FRAP [3]: 15.87 ± 1.13 μMTE | Absorbance Day 1 [4]: 0.82 ± 0.04 | Absorbance Day 2 [4]: 0.87 ± 0.09 | Absorbance Day 3 [4]: 0.88 ± 0.09 | Absorbance Day 4 [4]: 0.87 ± 0.05 | Absorbance Day 5 [4]: 0.88 ± 0.03 | DPPH Activity [5]: 45.72 ± 1.38%

COc1ccc(/C=N/NS(=O)(=O)c2ccc(C)cc2)cc1OC [5h, N’-[(E)-(3,4-dimethoxyphenyl)methylidene]-4-methylbenzenesulfonohydrazide]
inhibition at 1000 µM [1]: 10.5% | IC50 [1]: > 1000 µM | inhibition at 1000 µM [2]: 26.6 ± 5.11% | IC50 [2]: > 1000 µM | IC50 (Neuro-2a cells): 136 ± 12.6 µM | IC50 (SH-SY5Y cells): 42 ± 5.2 µM | IC50 (CCL-1 cells): 160 µM | ABTS Activity [6]: ≥100% | IC50 [6]: 1850 ± 30 µM | FRAP [3]: 20.37 ± 0.90 μMTE | Absorbance Day 1 [4]: 0.70 ± 0.09 | Absorbance Day 2 [4]: 0.82 ± 0.06 | Absorbance Day 3 [4]: 0.83 ± 0.05 | Absorbance Day 4 [4]: 0.83 ± 0.06 | Absorbance Day 5 [4]: 0.80 ± 0.05 | DPPH Activity [5]: 16.94 ± 1.09%

COc1ccc(/C=N/NS(=O)(=O)c2ccccc2)cc1OC [5i, N’-[(E)-(3,4-dimethoxyphenyl)methylidene]benzenesulfonohydrazide]
inhibition at 1000 µM [1]: 2.63% | IC50 [1]: > 1000 µM | inhibition at 1000 µM [2]: 7.67 ± 0.99% | IC50 [2]: > 1000 µM | IC50 (Neuro-2a cells): 109 ± 5.1 µM | IC50 (SH-SY5Y cells): 40.3 ± 6.1 µM | IC50 (CCL-1 cells): 147 µM | ABTS Activity [6]: 65.29 ± 2.34% | IC50 [6]: 3740 ± 50 µM | FRAP [3]: 14.67 ± 0.81 μMTE | Absorbance Day 1 [4]: 0.81 ± 0.08 | Absorbance Day 2 [4]: 0.83 ± 0.01 | Absorbance Day 3 [4]: 0.83 ± 0.09 | Absorbance Day 4 [4]: 0.81 ± 0.02 | Absorbance Day 5 [4]: 0.83 ± 0.03 | DPPH Activity [5]: 16.21 ± 3.01%

O=S(=O)(N/N=C/c1c[nH]c2ccc(OCc3ccccc3)cc12)c1ccccc1 [5k]
inhibition at 1000 µM [1]: 35.4% | IC50 [1]: > 1000 µM | inhibition at 1000 µM [2]: 4.97% | IC50 [2]: > 1000 µM | IC50 (Neuro-2a cells): 77.7 ± 6.9 µM | IC50 (SH-SY5Y cells): 135 ± 14 µM | IC50 (CCL-1 cells): 321 ± 16.2 µM | ABTS Activity [6]: ≥100% | IC50 [6]: 2570 ± 130 µM | FRAP [3]: 22.52 ± 1.29 μMTE | Absorbance Day 1 [4]: 0.80 ± 0.04 | Absorbance Day 2 [4]: 0.80 ± 0.09 | Absorbance Day 3 [4]: 0.83 ± 0.05 | Absorbance Day 4 [4]: 0.84 ± 0.08 | Absorbance Day 5 [4]: 0.87 ± 0.09 | DPPH Activity [5]: 47.18 ± 1.14%

Cc1cc(C(C)(C)C)c(O)c(C(C)(C)C)c1 [BHT, butylated hydroxytoluene, reference compound]
ABTS Activity [6]: 29.53 ± 1.65% | IC50 [6]: > 5000 µM | FRAP [3]: 15.79 ± 0.58 μMTE | Absorbance Day 1 [4]: 0.74 ± 0.07 | Absorbance Day 2 [4]: 0.77 ± 0.03 | Absorbance Day 3 [4]: 0.78 ± 0.06 | Absorbance Day 4 [4]: 0.80 ± 0.06 | Absorbance Day 5 [4]: 0.81 ± 0.09 | DPPH Activity [5]: 7.78 ± 0.77%
